In US8663604B2, “Method for measuring neurotransmitters in vivo” (The Regents of the University of California, priority 2007, dated 2014):

How the values were obtained:
[1] = target: T1, M1 muscarinic acetylcholine receptor (Rattus norvegicus, UniProt P08482); assay: In vitro two-photon FRET response of M1-TN-XXL neurofluocytes to bath-applied neurotransmitters; format: cell-based; conditions: ACh applied at 10 nM to 10 μM via bath perfusion
T1 construct: expressed in transfected cells
T1 sequence (P08482 1-460): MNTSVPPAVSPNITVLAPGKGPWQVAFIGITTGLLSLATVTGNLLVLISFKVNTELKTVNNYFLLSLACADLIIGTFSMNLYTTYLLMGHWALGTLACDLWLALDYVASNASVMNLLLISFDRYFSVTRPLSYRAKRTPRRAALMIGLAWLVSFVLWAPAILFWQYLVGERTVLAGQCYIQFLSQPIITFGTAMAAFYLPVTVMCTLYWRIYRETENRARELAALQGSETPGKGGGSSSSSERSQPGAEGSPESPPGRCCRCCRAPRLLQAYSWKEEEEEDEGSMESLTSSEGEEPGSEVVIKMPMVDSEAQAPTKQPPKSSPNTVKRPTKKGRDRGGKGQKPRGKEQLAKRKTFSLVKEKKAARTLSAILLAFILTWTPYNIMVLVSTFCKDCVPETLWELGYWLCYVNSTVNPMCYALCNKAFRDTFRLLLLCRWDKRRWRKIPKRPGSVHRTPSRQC
From the text: The state of each cell is imaged with in vivo two-photon laser scanning microscopy (TPLSM). In another implementation, HEK293 cells were transfected with the Ca^2+-coupled M1 muscarinic receptor and the genetically encoded FRET-based Ca^2+ biosensor TN-XXL. In the presence of acetylcholine (ACh), a M1-mediated Ca^2+ increase is transduced by TN-XXL into a FRET-based optical signal.
ACh-neurofluocytes expressing a muscarinic receptor and fluorescent protein. […] These cells are referred to here as M1-TN-XXL neuro-fluocytes. HEK-293 cells were transduced with lentiviruses modified to carry the M1 muscarinic acetylcholine receptor or the TN-XXL FRET intracellular calcium indicator as transgenes. Clonal cells were selected subsequently based on the highest response to acetylcholine in vitro.
M1-TN-XXL neurofluocytes. ACh-neurofluocytes were tested in vitro for their sensitivity to acetylcholine. […] FIG. 2a provides a diagram of the detection mechanism.

[2] = target: T2, ionotropic receptor 5-HT3A (Rattus norvegicus, UniProt P35563); assay: In vitro response of HEK cells transiently cotransfected with 5-HT3A and TN-XXL to bath-applied serotonin; format: cell-based; conditions: 3-10 μm serotonin applied in the bath
T2 construct: expressed in transfected cells; host or cells: HEK cells, transient co-transfection with TN-XXL
T2 sequence (P35563 24-483): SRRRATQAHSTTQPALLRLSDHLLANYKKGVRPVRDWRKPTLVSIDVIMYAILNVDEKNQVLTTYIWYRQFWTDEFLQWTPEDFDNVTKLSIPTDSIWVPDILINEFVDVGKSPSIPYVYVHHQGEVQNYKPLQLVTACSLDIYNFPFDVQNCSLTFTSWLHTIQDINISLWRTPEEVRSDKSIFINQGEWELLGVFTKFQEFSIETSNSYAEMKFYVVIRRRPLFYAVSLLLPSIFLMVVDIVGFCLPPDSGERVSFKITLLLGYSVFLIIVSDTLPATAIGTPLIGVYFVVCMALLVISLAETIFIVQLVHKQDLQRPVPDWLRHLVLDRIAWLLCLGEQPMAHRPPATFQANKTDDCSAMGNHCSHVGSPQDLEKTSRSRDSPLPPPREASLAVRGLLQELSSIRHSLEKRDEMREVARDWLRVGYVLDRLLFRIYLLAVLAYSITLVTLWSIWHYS

[3] = system: muscarinic receptors; assay: Response of implanted neurofluocytes to NBM stimulation after intracerebral injection of antagonist
Description: Urethane-anesthetized rats were injected with HEK293 cells loaded with Calcium Green in the cerebral cortex and a bipolar stimulating electrode was implanted in NBM together with ECoG-recording electrodes to detect desynchronization in cerebral cortex upon NBM stimulation.
A similar set of experiments was conducted with stably transfected M1-TN-XXL neurofluocytes.

| SMILES | FRET response / sensitivity of ACh-neurofluocytes to neurotransmitter [1] | response of 5-HT3A/TN-XXL cells [2] | effect on responses of neurofluocytes to NBM stimulation [3] |
| --- | --- | --- | --- |
| NCCc1ccc(O)c(O)c1 [dopamine] | insensitive |  |  |
| N[C@@H](CCC(=O)O)C(=O)O [glutamate] | insensitive |  |  |
| NCCc1c[nH]c2ccc(O)cc12 [serotonin] | insensitive | responded robustly |  |
| CN1[C@@H]2CC[C@H]1C[C@@H](OC(=O)C(CO)c1ccccc1)C2 (stereo partly shown) [atropine] |  |  | abolished |
| NCCCC(=O)O [GABA] | insensitive |  |  |
| NC[C@H](O)c1ccc(O)c(O)c1 [norepinephrine] | insensitive |  |  |
